{"source": "patent US4160016A", "about": "“Receptor fluorescent immunoassay” (Syva Company, priority 1977, dated 1979)", "format_in_all_cases": "biochemical", "key": {"[1]": {"tested_on": "Anti-Fluorescein and Anti-Morphine", "assay": "Table I fluorescence readings: fluorescein-morphine with antifluorescein and/or anti-morphine, with and without codeine", "procedure": "In order to establish the utility of the subject compounds, the following assays were carried out. […] The fluorometer employed was a Perkin-Elmer MPF-2a. Antibodies to the fluorescers had been prepared according to normal procedures. The bovine serum albumin conjugates were injected into sheep, and after appropriate periods of time, the antibodies harvested according to conventional techniques. For typical methods of obtaining antibodies, see Microbiology, Hober Medical Division, Harper and Rowe, 1969; Landsteiner, Specificity of Seriological Reactions, Dover Publications, New York, 1962; Kabat, et al, supra; and Williams, et al, Methods in Immunology and Immunochemistry, Vol. 1, Academic Press, New York, 1967.\n(§1) The reagents which were employed were as follows: FLUMO (fluorescein-morphine conjugate, Example V) was 3× 10^-6 M in water; antifluorescein was 5.6× 10^-6 M in binding sites, in water, 0.05M phosphate, pH 8.0; anti-morphine was 2× 10^-4 M in binding sites, 0.05M tris-HCl, pH 8.0, in saline solution; buffer was Tris/saline 0.05M/l, pH 8,0. Opiate solutions had 1,000 μg/ml of codeine. The solution was then diluted to a final volume of 4 ml with buffer.\n(§2) All of the determinations were made at a sensitivity setting on the instrument of 4. Excitation light was 460 nm and the emitted light read at 516 nm, with a band width of 10 nm.\n(§3) Where a reading is given but the absence of any material is indicated, only buffer was present in the cell. The reading times indicate the interval of time from the time of the first reading to the reading for the result which is reported, the first reading being made within as short an interval as possible of the mixing."}, "[2]": {"tested_on": "Anti-Morphine", "assay": "Fluorescence assay for codeine with morphine-fluorescein conjugate (Ex. V) and antimorphine (Table 2)", "source_text": "The following tables indicate the results."}, "[3]": {"tested_on": "Anti-Morphine", "assay": "Fluorescence quenching of fluorescein-morphine by anti-morphine alone (Table I, cell No. 3)", "conditions": "for Signal Intensity: fluorescein-morphine 5 μl + anti-morphine 5 μl", "procedure": "as §1, §2, §3"}}, "note": "Values joined by “and” are separate entries in the source; they are usually repeats but may differ in a detail not shown here. Equal values may be shown once."}
{"smiles": "COc1ccc2c3c1O[C@H]1[C@@H](O)C=C[C@H]4[C@@H](C2)N(C)CC[C@@]341", "note": "[Codeine, codeine, reference compound]", "values": [{"measurement": "change in signal intensity", "setting": "[1]; cell No. 1, codeine added to mixture of the two antibodies, over 90 minutes", "value": 0.5, "unit": "units"}, {"measurement": "change in signal intensity", "setting": "[1]; cell No. 3, both antibodies with codeine and fluorescein-morphine, over 90 minutes", "value": 6.5, "unit": "units"}, {"measurement": "Signal Intensity", "setting": "[1]; codeine 5 μl + anti-fluorescein + anti-morphine, no fluorescein-morphine, 90 min, cell No. 1", "value": 6}, {"measurement": "Signal Intensity", "setting": "[1]; codeine 5 μl + anti-fluorescein + anti-morphine, no fluorescein-morphine, first reading, cell No. 1", "value": 5.5}, {"measurement": "Signal Intensity", "setting": "[1]; codeine 5 μl added to fluorescein-morphine + anti-fluorescein + anti-morphine, 90 min, cell No. 3", "value": 16}, {"measurement": "Signal Intensity", "setting": "[1]; codeine 5 μl added to fluorescein-morphine + anti-fluorescein + anti-morphine, first reading, cell No. 3", "value": 20}, {"measurement": "change in fluorescence", "setting": "[1]; codeine introduced into mixture of fluorescein-morphine and antibodies to fluorescein and morphine", "value": "a detectable change in fluorescence is obtained"}, {"measurement": "fluorescence quenched by the anti-morphine that is recovered with the addition of codeine", "setting": "[2]", "value": "about 30%"}, {"measurement": "Fluorescence Signal", "setting": "[2]; Ex. V + anti-morphine + codeine 1.9 × 10^-7 M", "value": 62.5, "unit": "arbitrary units"}, {"measurement": "Fluorescence Signal", "setting": "[2]; Ex. V + anti-morphine + codeine 6.7 × 10^-7 M", "value": 64.5, "unit": "arbitrary units"}, {"measurement": "Fluorescence Signal", "setting": "[2]; Ex. V + anti-morphine + codeine 9.5 × 10^-8 M", "value": 61, "unit": "arbitrary units"}, {"measurement": "concentration of codeine detectible", "setting": "[2]; with the particular materials employed", "value": "about 10^-7"}]}
{"smiles": "CN1CC[C@]23c4c5ccc(OCC(=O)Nc6ccc7c(c6)C6(OC7=O)c7ccc(O)cc7Oc7cc(O)ccc76)c4O[C@H]2[C@@H](O)C=C[C@H]3[C@H]1C5", "note": "[Ex. V]", "values": [{"measurement": "change in signal intensity", "setting": "[1]; cell No. 2, no codeine, in the first 5 minutes", "value": 1.5, "unit": "units"}, {"measurement": "change in signal intensity", "setting": "[1]; cell No. 2, no codeine, over 90 minutes", "value": 2.5, "unit": "units"}, {"measurement": "Signal Intensity", "setting": "[1]; fluorescein-morphine 5 μl + anti-fluorescein 5 μl + anti-morphine 5 μl, first reading, cells No. 2 and 3", "value": "25 and 23"}, {"measurement": "Signal Intensity", "setting": "[1]; fluorescein-morphine 5 μl + anti-fluorescein 5 μl, cell No. 2", "value": 21}, {"measurement": "Signal Intensity", "setting": "[1]; fluorescein-morphine 5 μl alone, buffer pH 8.0, ex 460 nm, em 516 nm, cells No. 2 and 3", "value": "62 and 46"}, {"measurement": "Signal Intensity", "setting": "[1]; fluorescein-morphine + anti-fluorescein + anti-morphine (5 μl each), 5 min, cells No. 2 and 3", "value": "26.5 and 22.5"}, {"measurement": "Signal Intensity", "setting": "[1]; fluorescein-morphine + anti-fluorescein + anti-morphine (5 μl each), 90 min, cell No. 2", "value": 27.5}, {"measurement": "Signal Intensity", "setting": "[3]; 5 min", "value": 35}, {"measurement": "Signal Intensity", "setting": "[3]; first reading", "value": 35.5}, {"measurement": "reduction in signal intensity", "setting": "[3]; fluorescein-morphine combined with antimorphine", "value": "approximately 25%"}, {"measurement": "Fluorescence Signal", "setting": "[2]; Ex. V 1.9 × 10^-8 M alone", "value": 79, "unit": "arbitrary units"}]}
